In patent US20140288073A1, “Method of Treating Gastrointestinal Stromal Tumors” (NOVARTIS AG, priority 2011, published 2014):
“Also recorded” adds a separate entry of the source.

Columns and labels:
[1] = system: GIST-T1 cells; assay: CellTiter-Glo cell viability/proliferation assay, GIST-T1; assay type: cell-based, human; conditions: for Inhibition of proliferation as single agent: GIST-T1 (ex11del KIT), Example 2; for Combination Index for 70% inhibition of GIST cell proliferation / Synergy Score for inhibition of GIST cell proliferation: Imatinib combined with the compound
Text: (§1) GIST882, GIST48 and GIST430 cell lines were obtained from the Brigham and Women's Hospital, Boston, Mass. GIST882 was established from an untreated human GIST with a homozygous missense mutation in KIT exon 13, encoding a […] mutant KIT protein ([…], et al. Oncogene 2001; 20: 5054-5058). […] GIST48 has a primary homozygous exon 11 missense mutation […]) and a secondary heterozygous exon 17 missense mutation […]). GIST430 has a primary heterozygous exon 11 in-frame deletion and a secondary heterozygous exon 13 missense mutation (V654A). GIST-T1 was obtained from Kochi Medical School, Kochi, Japan. It was established from a metastatic human GIST with a heterozygous […] bases in exon 11 of KIT (Taguchi T, Sonobe H, Toyonaga S, et al. Lab Invest 2002; 82: 663-665). […] Cell proliferation was measured using the CellTiter-Glo luminescent cell viability assay (Promega catalog #G755B) and Victor4 plate reader (Perkin Elmer). Synergy scores and CI70 calculations were determined as described elsewhere (Lehar J, Krueger A S, et al. Nat Biotechnol 2009; 27: 659-666).

[2] = system: GIST882 cells; assay: CellTiter-Glo cell viability/proliferation assay, GIST882; assay type: cell-based, human; conditions: for Inhibition of proliferation as single agent: GIST882 (K642E mutant KIT), Example 2; for Combination Index for 70% inhibition of GIST cell proliferation / Synergy Score for inhibition of GIST cell proliferation: Imatinib combined with the compound
Text: as §1

[3] = system: GIST cell lines; assay: Combination effect on growth of GIST cell lines (FIG. 6); assay type: cell-based, human; conditions: combination with nilotinib, presence of 20 ng/ml FGF2, monophosphate
Description: FIG. 6: Combination effect of nilotinib plus BGJ398 in GIST cell lines in the presence of 20 ng/ml FGF2.
10,000 cells suspended in 80 μl media were seeded into each well of a 96-well cell-culture plate and grown for 24 hours prior to treatment. 10 μl of 60 μg/mL heparin (Sigma Catalog # H3149) was added to each well, and then 10 μl of 50 μg/mL FGF2 (R&D Catalog #233-FB/CF) or media was added to each well of the plates. 10 μl of each of the compound dilutions described above and 10 μl of media were added to wells to a final volume 120 μl such that all pair-wise combinations as well as the single agents were represented. Cells were incubated for 72 hrs at 37° C. in a 5% CO2 incubator following compound addition. Cell proliferation was measured using the CellTiter-Glo luminescent cell viability assay (Promega catalog #G755B) and Victor4 plate reader (Perkin Elmer). Synergy scores and CI70 calculations were determined as described elsewhere (Lehar J, Krueger A S, et al. Nat Biotechnol 2009; 27: 659-666).

[4] = system: GIST430 cells; assay: CellTiter-Glo cell viability/proliferation assay, GIST430; assay type: cell-based, human; conditions: for Inhibition of proliferation as single agent: GIST430 (ex11del/V654A KIT), Example 2; for Growth suppression in combination with imatinib versus single agent treatment / Combination Index for 70% inhibition of GIST cell proliferation / Synergy Score for inhibition of GIST cell proliferation: GIST430; for Combination Index for 70% inhibition of GIST cell proliferation / Synergy Score for inhibition of GIST cell proliferation: Imatinib combined with the compound
Text: as §1

[5] = system: GIST48 cells; assay: CellTiter-Glo cell viability/proliferation assay, GIST48; assay type: cell-based, human; conditions: for Inhibition of proliferation as single agent: Example 2; for Combination Index for 70% inhibition of GIST cell proliferation / Synergy Score for inhibition of GIST cell proliferation: Imatinib combined with the compound
Text: as §1

[6] = system: GIST; conditions: cited from earlier work
[7] = system: GIST; conditions: cited from earlier work; remark: listed apart in the source
[8] = GIST-T1, absence of FGF2, 3 days
[9] = GIST-T1, presence of added FGF2, 3 days
[10] = GIST882, absence of FGF2, 3 days
[11] = GIST882, presence of added FGF2, 3 days
[12] = GIST882, combination with imatinib

SMILES	Growth inhibition as single agent [1, 8]	Growth inhibition as single agent [1, 9]	Growth inhibition as single agent [2, 10]	Growth inhibition as single agent [2, 11]	Inhibition of proliferation as single agent [1]	Combination Index for 70% inhibition of GIST cell proliferation ([1]; GIST-T1)	Synergy Score for inhibition of GIST cell proliferation ([1]; GIST-T1)	Inhibition of proliferation as single agent [2]	Growth suppression in combination with imatinib versus single agent treatment [2, 12]	Combination Index for 70% inhibition of GIST cell proliferation ([2]; GIST882)	Synergy Score for inhibition of GIST cell proliferation ([2]; GIST882)	Inhibition of proliferation as single agent [4]	Growth suppression in combination with imatinib versus single agent treatment [4]	Combination Index for 70% inhibition of GIST cell proliferation [4]	Synergy Score for inhibition of GIST cell proliferation [4]	Inhibition of proliferation as single agent [5]	Combination Index for 70% inhibition of GIST cell proliferation [5]	Synergy Score for inhibition of GIST cell proliferation [5]	also measured
CCN1CCN(c2ccc(Nc3cc(N(C)C(=O)Nc4c(Cl)c(OC)cc(OC)c4Cl)ncn3)cc2)CC1.O=P(O)(O)O [BGJ398, 3-(2,6-dichloro-3,5-dimethoxy-phenyl)-1-{6-[4-(4-ethyl-piperazin-1-yl)-phenylamino]-pyrimid-4-yl}-1-methyl-urea monophosphate]	did not significantly affect the viability	did not significantly affect the viability	did not significantly affect the viability	did not significantly affect the viability															Combination effect on growth inhibition ([1]; GIST-T1, combination with imatinib, presence of FGF2 (20 ng/ml)): strong combination effects; Combination effect on growth inhibition ([2]; GIST882, combination with imatinib, presence of FGF2 (20 ng/ml)): strong combination effects; Combination effect on growth inhibition [3]: strong combination effects; also recorded: synergy
Nc1cc(C(F)(F)F)c(-c2cc(N3CCOCC3)nc(N3CCOCC3)n2)cn1 [COMPOUND C, 5-(2,6-di-morpholin-4-yl-pyrimidin-4-yl)-4-trifluoromethyl-pyridin-2-ylamine]					inhibited the proliferation of all four cell-lines at low micromolar concentrations	0.782	1.29	inhibited the proliferation of all four cell-lines at low micromolar concentrations	growth suppression was observed in excess of the percent inhibition achieved by imatinib or COMPOUND C single agent treatment	0.597	1.90	inhibited the proliferation of all four cell-lines at low micromolar concentrations	growth suppression was observed in excess of the percent inhibition achieved by imatinib or COMPOUND C single agent treatment	0.252	1.96	inhibited the proliferation of all four cell-lines at low micromolar concentrations	0.716	1.20	
Cc1cn(-c2cc(NC(=O)c3ccc(C)c(Nc4nccc(-c5cccnc5)n4)c3)cc(C(F)(F)F)c2)cn1 [nilotinib, 4-methyl-3-[[4-(3-pyridinyl)-2-pyrimidinyl]amino]-N-[5-(4-methyl-1H-imidazol-1-yl)-3-(trifluoromethyl)phenyl]benzamide, reference compound]	sensitive		sensitive																GI50 shift in the presence of added FGF2 ([1]; GIST-T1, 3 days, with vs without added FGF2 (50, 25, 12 ng/ml)): greater than 10 fold; GI50 shift in the presence of added FGF2 ([2]; GIST882, 3 days, with vs without added FGF2 (50, 25, 12 ng/ml)): greater than 10 fold
Cn1c(=O)n(-c2ccc(C(C)(C)C#N)cc2)c2c3cc(-c4cnc5ccccc5c4)ccc3ncc21 [COMPOUND A, 2-methyl-2-[4-(3-methyl-2-oxo-8-quinolin-3-yl-2,3-dihydro-imidazo[4,5-c]quinolin-1-yl)-phenyl]-propionitrile]					inhibited the proliferation of all four cell-lines at low micromolar concentrations	0.493	1.10	inhibited the proliferation of all four cell-lines at low micromolar concentrations	growth suppression was observed in excess of the percent inhibition achieved by imatinib or COMPOUND A single agent treatment	0.194	5.07	inhibited the proliferation of all four cell-lines at low micromolar concentrations	growth suppression was observed in excess of the percent inhibition achieved by imatinib or COMPOUND A single agent treatment	0.260	2.06	inhibited the proliferation of all four cell-lines at low micromolar concentrations	1.25	0.38	
Cc1ccc(NC(=O)c2ccc(CN3CCN(C)CC3)cc2)cc1Nc1nccc(-c2cccnc2)n1 [imatinib, 4-(4-methylpiperazin-1-ylmethyl)-N-[4-methyl-3-(4-(pyridin-3-yl)pyrimidin-2-ylamino)phenyl]-benzamide, reference compound]	efficacious	less sensitive	efficacious	less sensitive	potently inhibited			potently inhibited				potently inhibited				imatinib resistant			Progression-free survival (PFS) ([6]; 800 mg/day compared to 400 mg/day, advanced GIST harboring KIT exon 9 mutations): significantly improves; Patients progressing after 2 years of first line therapy ([6]; advanced GIST, first line therapy): more than 50%; Recurrence-free survival (RFS) ([7]; 400 mg/day for 12 months compared with placebo, after complete resection (ACOSOGZ9001)): significantly prolonged; RFS and overall survival ([7]; 36 months versus 12 months adjuvant therapy, 400 mg once daily (SSGXVIII/AIO)): superior to 12 months
Cc1nc(NC(=O)N2CCC[C@H]2C(N)=O)sc1-c1ccnc(C(C)(C)C(F)(F)F)c1 [COMPOUND D, (S)-pyrrolidine-1,2-dicarboxylic acid 2-amide 1-({4-methyl-5-[2-(2,2,2-trifluoro-1,1-dimethyl-ethyl)-pyridin-4-yl]-thiazol-2-yl}-amide)]					little or no effect	0.988	1.06	little or no effect			0.46	little or no effect	growth suppression was observed in excess of the percent inhibition achieved by imatinib or COMPOUND D single agent treatment	0.791	2.04	little or no effect	1.18	1.98	Growth suppression in combination with imatinib versus single agent treatment ([5]; combination with imatinib): growth suppression was observed in excess of the percent inhibition achieved by imatinib or COMPOUND D single agent treatment
